Values quoted from earlier work as cited in US6444700B1, “Product and method to reduce stress induced immune suppression” (Abbott Laboratories, priority 1998, dated 2002).

CC1=C(/C=C/C(C)=C/C=C/C(C)=C/CO)C(C)(C)CCC1 [Vitamin A, retinol]
sustained daily intake at which signs of toxicity usually appear (foods and supplements): exceeding 15,000 RE

[Se] [selenium]
intake from foods resulting in fingernail changes and hair loss (seleniferous zone of China): approximately 5 mg per day

CC1=C(/C=C/C(C)=C/C=C/C(C)=C/C=C/C=C(C)/C=C/C=C(C)/C=C/C2=C(C)CCCC2(C)C)C(C)(C)CCC1 [β-Carotene]
toxicity when given in very high doses (compared with vitamin A): not toxic
